The results in this text go back to US20220281876A1, “DEGRADATION OF BRUTON'S TYROSINE KINASE (BTK) BY CONJUGATION OF BTK INHIBITORS WITH E3 LIGASE LIGAND AND METHODS OF USE” (BEIGENE, LTD., priority 2019, published 2022).

Some results are limits rather than exact numbers.

For the assay, the target named is T1, BTK (Homo sapiens, UniProt Q06187).
T1 construct: endogenous in cells; host or cells: Ramos cells
T1 sequence (Q06187 whole entry): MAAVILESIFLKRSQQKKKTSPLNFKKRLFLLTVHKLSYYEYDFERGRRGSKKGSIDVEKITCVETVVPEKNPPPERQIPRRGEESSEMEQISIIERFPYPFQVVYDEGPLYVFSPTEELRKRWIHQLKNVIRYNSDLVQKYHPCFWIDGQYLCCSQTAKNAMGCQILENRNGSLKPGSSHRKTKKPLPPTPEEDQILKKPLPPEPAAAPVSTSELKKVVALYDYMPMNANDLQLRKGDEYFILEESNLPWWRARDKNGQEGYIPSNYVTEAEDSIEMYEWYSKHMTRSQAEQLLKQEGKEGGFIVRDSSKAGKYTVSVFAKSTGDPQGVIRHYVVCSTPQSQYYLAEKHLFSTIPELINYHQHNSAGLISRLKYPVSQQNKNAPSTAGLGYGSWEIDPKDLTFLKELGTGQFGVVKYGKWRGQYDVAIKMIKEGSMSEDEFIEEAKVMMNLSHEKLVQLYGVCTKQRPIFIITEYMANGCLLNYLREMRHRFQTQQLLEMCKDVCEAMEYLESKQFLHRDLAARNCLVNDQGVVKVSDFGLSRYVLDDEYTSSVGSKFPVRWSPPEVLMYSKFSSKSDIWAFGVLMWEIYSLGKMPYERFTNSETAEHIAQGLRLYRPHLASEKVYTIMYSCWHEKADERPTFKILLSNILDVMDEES
The assay is described as follows: BTK cell degradation in Ramos cells (total BTK ELISA). The class given is cell-based. The following applies: 16 h incubation, FastScan total BTK ELISA. The method, then:
Ramos cells are treated with compounds diluted in 0.1% DMSO, dilution is done according to the following protocol: (1) make 1000x stock solution in DMSO from 10 mM by 5-fold dilution, total 7 doses were included; (2) make 10x solution in cell culture medium by transferring 1 ul 1000x stock solution into 99 ul medium; (3) 11 ul of 10× solution is added to cells and incubate for 16 h.
Cells in 96 well plate are harvested by centrifugation (1200 rpm), and wash once with ice-cold PBS. Then, 100 ul 1×cell extraction buffer is added in each well. The cells are placed on a shaker for 20 min at 4° C.; 5 ul lysate is transferred to 45 ul of 1×cell extraction buffer in ELISA plate, and 50 ul of the antibody cocktail is added in each well; seal the plate and incubate 1 hour at room temperature on a plate shaker; medium is discarded from the plate, tap the plated on a paper towel, wash 3×200 ul ELISA wash buffer; add 100 ul of TMB to each well and incubate the plate in the dark for 15 min at room temperature on a shaker; add 100 ul of STOP solution to each well; read absorbance at 450 nm. The BTK ELISA assay was performed using FastScan total BTK ELISA kit (Cell Signaling Cat #36609).
Background: An ELISA detects its analyte on a solid surface through an enzyme-linked reagent.
By DC50 is commonly meant the concentration giving 50% degradation. A low value points to degradation at low concentration. `NC(=O)c1c(-c2ccc(Oc3ccccc3)cc2)nn2c1NCC[C@H]2C1CCN(C(=O)CCN2CCN(c3ccc(CNC(=O)CNc4cccc5c4CN(C4CCC(=O)NC4=O)C5=O)cc3)CC2)CC1` (stereo partly drawn) [Example 45, (7S)-7-(1-(3-(4-(4-((2-((2-(2,6-dioxopiperidin-3-yl)-1-oxoisoindolin-4-yl)amino)acetamido)methyl)phenyl)piperazin-1-yl)propanoyl)piperidin-4-yl)-2-(4-phenoxyphenyl)-4,5,6,7-tetrahydropyrazolo[1,5-a]pyrimidine-3-carboxamide] came in with a DC50 of 382 nM.
In the case of `NC(=O)c1c(-c2ccc(Oc3ccccc3)cc2)nn2c1NCC[C@H]2C1CCN(C(=O)c2cn(CCOCCOCCOCCOCCNc3ccc4c(c3)C(=O)N(C3CCC(=O)NC3=O)C4=O)nn2)CC1` (stereo partly drawn) [Example 12, (7S)-7-(1-(1-(14-((2-(2,6-dioxopiperidin-3-yl)-1,3-dioxoisoindolin-5-yl)amino)-3,6,9, 12-tetraoxatetradecyl)-1H-1,2,3-triazole-4-carbonyl)piperidin-4-yl)-2-(4-phenoxyphenyl)-4,5,6,7-tetrahydropyrazolo[1,5-a]pyrimidine-3-carboxamide], the DC50 is above 10000 nM.
In turn, `CN(/C=C/C(=O)N1CCC([C@@H]2CCNc3c(C(N)=O)c(-c4ccc(Oc5ccccc5)cc4)nn32)CC1)CCNc1cccc2c1C(=O)N(C1CCC(=O)NC1=O)C2=O` (stereo partly drawn) [Example 49, (7S)-7-(1-((E)-3-((2-((2-(2,6-dioxopiperidin-3-yl)-1,3-dioxoisoindolin-4-yl)amino)ethyl)(methyl)amino)acryloyl)piperidin-4-yl)-2-(4-phenoxyphenyl)-4,5,6,7-tetrahydropyrazolo[1,5-a]pyrimidine-3-carboxamide] showed a DC50 above 10000 nM.
Turning to `NC(=O)c1c(-c2ccc(Oc3ccccc3)cc2)nn2c1NCC[C@H]2C1CCN(CCOCCOCC(=O)Nc2ccc3c(c2)C(=O)N(C2CCC(=O)NC2=O)C3=O)CC1` (stereo partly drawn) [Example 24, (7S)-7-(1-(2-(2-(2-((2-(2,6-dioxopiperidin-3-yl)-1,3-dioxoisoindolin-5-yl)amino)-2-oxoethoxy)ethoxy)ethyl)piperidin-4-yl)-2-(4-phenoxyphenyl)-4,5,6,7-tetrahydropyrazolo[1,5-a]pyrimidine-3-carboxamide], it took 34 nM to reach half-maximal degradation (DC50).
With `NC(=O)c1c(-c2ccc(Oc3ccccc3)cc2)nn2c1NCC[C@H]2C1CCN(C(=O)CCCc2cn(CCOCCNc3cccc4c3C(=O)N(C3CCC(=O)NC3=O)C4=O)nn2)CC1` (stereo partly drawn) [Example 18, (7S)-7-(1-(4-(1-(2-(2-((2-(2,6-dioxopiperidin-3-yl)-1,3-dioxoisoindolin-4-yl)amino)ethoxy)ethyl)-1H-1,2,3-triazol-4-yl)butanoyl)piperidin-4-yl)-2-(4-phenoxyphenyl)-4,5,6,7-tetrahydropyrazolo[1,5-a]pyrimidine-3-carboxamide], the DC50 is 236 nM.
Under `CN(C/C=C/C(=O)N1CCC([C@@H]2CCNc3c(C(N)=O)c(-c4ccc(Oc5ccccc5)cc4)nn32)CC1)CCCCCCN1C(=O)CCC(N2Cc3c(N)cccc3C2=O)C1=O` (stereo partly drawn) [Example 51, (7S)-7-(1-((E)-4-((6-(3-(4-amino-1-oxoisoindolin-2-yl)-2,6-dioxopiperidin-1-yl)hexyl)(methyl)amino)but-2-enoyl)piperidin-4-yl)-2-(4-phenoxyphenyl)-4,5,6,7-tetrahydropyrazolo[1,5-a]pyrimidine-3-carboxamide] stands above 10000 nM; under `NC(=O)c1c(-c2ccc(Oc3ccccc3)cc2)nn2c1NCC[C@H]2C1CCN(C(=O)CCCc2cn(CCOCCOCCOCCNc3cccc4c3C(=O)N(C3CCC(=O)NC3=O)C4=O)nn2)CC1` (stereo partly drawn) [Example 21, (7S)-7-(1-(4-(1-(2-(2-(2-(2-((2-(2,6-dioxopiperidin-3-yl)-1,3-dioxoisoindolin-4-yl)amino)ethoxy)ethoxy)ethoxy)ethyl)-1H-1,2,3-triazol-4-yl)butanoyl)piperidin-4-yl)-2-(4-phenoxyphenyl)-4,5,6,7-tetrahydropyrazolo[1,5-a]pyrimidine-3-carboxamide], 388 nM.
With `NC(=O)c1c(-c2ccc(Oc3ccccc3)cc2)nn2c1NCC[C@H]2C1CCN(C(=O)CCCc2ccc(N3CCN(c4ccc5c(c4)C(=O)N(C4CCC(=O)NC4=O)C5=O)CC3)cc2)CC1` (stereo partly drawn) [Example 44, (7S)-7-(1-(4-(4-(4-(2-(2,6-dioxopiperidin-3-yl)-1,3-dioxoisoindolin-5-yl)piperazin-1-yl)phenyl)butanoyl)piperidin-4-yl)-2-(4-phenoxyphenyl)-4,5,6,7-tetrahydropyrazolo[1,5-a]pyrimidine-3-carboxamide] the figure was above 10000 nM; with `NC(=O)c1c(-c2ccc(Oc3ccccc3)cc2)nn2c1NCC[C@H]2C1CCN(C(=O)CCCC2CCC(N3CCN(c4ccc5c(c4)C(=O)N(C4CCC(=O)NC4=O)C5=O)CC3)CC2)CC1` (stereo partly drawn) [Example 148, (7S)-7-(1-(4-(4-(4-(2-(2,6-dioxopiperidin-3-yl)-1,3-dioxoisoindolin-5-yl)piperazin-1-yl)cyclohexyl)butanoyl)piperidin-4-yl)-2-(4-phenoxyphenyl)-4,5,6,7-tetrahydropyrazolo[1,5-a]pyrimidine-3-carboxamide], 205 nM; with `CN(C/C=C/C(=O)N1CCC([C@@H]2CCNc3c(C(N)=O)c(-c4ccc(Oc5ccccc5)cc4)nn32)CC1)CCCCCCNc1cccc2c1CN(C1CCC(=O)NC1=O)C2=O` (stereo partly drawn) [Example 47, (7S)-7-(1-((E)-4-((6-((2-(2,6-dioxopiperidin-3-yl)-1-oxoisoindolin-4-yl)amino)hexyl)(methyl)amino)but-2-enoyl)piperidin-4-yl)-2-(4-phenoxyphenyl)-4,5,6,7-tetrahydropyrazolo[1,5-a]pyrimidine-3-carboxamide], 315 nM.
Compound `NC(=O)c1c(-c2ccc(Oc3ccccc3)cc2)nn2c1NCC[C@H]2C1CCN(C(=O)COCCOCCOCCOCCNC(=O)COc2cccc3c2CN(C2CCC(=O)NC2=O)C3=O)CC1` (stereo partly drawn) [Example 29, (7S)-7-(1-(1-((2-(2,6-dioxopiperidin-3-yl)-1-oxoisoindolin-4-yl)oxy)-2-oxo-6,9, 12, 15-tetraoxa-3-azaheptadecan-17-oyl)piperidin-4-yl)-2-(4-phenoxyphenyl)-4,5,6,7-tetrahydropyrazolo[1,5-a]pyrimidine-3-carboxamide] registered a DC50 of 458 nM.
Under `NC(=O)c1c(-c2ccc(Oc3ccccc3)cc2)nn2c1NCC[C@H]2C1CCN(C(=O)CCNc2cccc3c2C(=O)N(C2CCC(=O)NC2=O)C3=O)CC1` (stereo partly drawn) [Example 154, (7S)-7-(1-(3-((2-(2,6-dioxopiperidin-3-yl)-1,3-dioxoisoindolin-4-yl)amino)propanoyl)piperidin-4-yl)-2-(4-phenoxyphenyl)-4,5,6,7-tetrahydropyrazolo[1,5-a]pyrimidine-3-carboxamide] stands 637 nM; under `NC(=O)c1c(-c2ccc(Oc3ccccc3)cc2)nn2c1NCC[C@H]2C1CCN(C(=O)c2cn(CCOCCOCCNc3ccc4c(c3)C(=O)N(C3CCC(=O)NC3=O)C4=O)nn2)CC1` (stereo partly drawn) [Example 7, (7S)-7-(1-(1-(2-(2-(2-((2-(2,6-dioxopiperidin-3-yl)-1,3-dioxoisoindolin-5-yl)amino)ethoxy)ethoxy)ethyl)-1H-1,2,3-triazole-4-carbonyl)piperidin-4-yl)-2-(4-phenoxyphenyl)-4,5,6,7-tetrahydropyrazolo[1,5-a]pyrimidine-3-carboxamide], above 10000 nM.
The compound `NC(=O)c1c(-c2ccc(Oc3ccccc3)cc2)nn2c1NCC[C@H]2C1CCN(C(=O)c2cn(CCOCCCc3cccc4c3CN(C3CCC(=O)NC3=O)C4=O)nn2)CC1` (stereo partly drawn) [Example 1, (7S)-7-(1-(1-(2-(3-(2-(2,6-dioxopiperidin-3-yl)-1-oxoisoindolin-4-yl)propoxy)ethyl)-1H-1,2,3-triazole-4-carbonyl)piperidin-4-yl)-2-(4-phenoxyphenyl)-4,5,6,7-tetrahydropyrazolo[1,5-a]pyrimidine-3-carboxamide] yielded a DC50 above 10000 nM.
The compound `NC(=O)c1c(-c2ccc(Oc3ccccc3)cc2)nn2c1NCC[C@H]2C1CCN(C(=O)CCN2CCN(c3ccc(CNC(=O)CCN4C(=O)CCC(N5Cc6c(N)cccc6C5=O)C4=O)cc3)CC2)CC1` (stereo partly drawn) [Example 56, (7S)-7-(1-(3-(4-(4-((3-(3-(4-amino-1-oxoisoindolin-2-yl)-2,6-dioxopiperidin-1-yl)propanamido)methyl)phenyl)piperazin-1-yl)propanoyl)piperidin-4-yl)-2-(4-phenoxyphenyl)-4,5,6,7-tetrahydropyrazolo[1,5-a]pyrimidine-3-carboxamide] showed a DC50 of 2360 nM.
Under `CN(C/C=C/C(=O)N1CCC([C@@H]2CCNc3c(C(N)=O)c(-c4ccc(Oc5ccccc5)cc4)nn32)CC1)CCOCCOCCN1C(=O)CCC(N2Cc3c(N)cccc3C2=O)C1=O` (stereo partly drawn) [Example 55, (7S)-7-(1-((E)-4-((2-(2-(2-(3-(4-amino-1-oxoisoindolin-2-yl)-2,6-dioxopiperidin-1-yl)ethoxy)ethoxy)ethyl)(methyl)amino)but-2-enoyl)piperidin-4-yl)-2-(4-phenoxyphenyl)-4,5,6,7-tetrahydropyrazolo[1,5-a]pyrimidine-3-carboxamide] stands 382 nM; under `CN(C/C=C/C(=O)N1CCC([C@@H]2CCNc3c(C(N)=O)c(-c4ccc(Oc5ccccc5)cc4)nn32)CC1)CCOCCOCCOCCN1C(=O)CCC(N2Cc3c(N)cccc3C2=O)C1=O` (stereo partly drawn) [Example 52, (7S)-7-(1-((E)-1-(3-(4-amino-1-oxoisoindolin-2-yl)-2,6-dioxopiperidin-1-yl)-12-methyl-3,6,9-trioxa-12-azahexadec-14-en-16-oyl)piperidin-4-yl)-2-(4-phenoxyphenyl)-4,5,6,7-tetrahydropyrazolo[1,5-a]pyrimidine-3-carboxamide], 144 nM.
